ChEMBL document CHEMBL1154203, “N-[(3S)-Pyrrolidin-3-yl]benzamides as novel dual serotonin and noradrenaline reuptake inhibitors: impact of small structural modifications on P-gp recognition and CNS penetration” (Bioorg Med Chem Lett, 2009)
Blank lines part the entries; values can stand above or below the compound they belong to.

Columns and labels:
[1] = in vitro; details: human, liver microsomes
Description: Intrinsic clearance in human liver microsomes

[2] = target: Sodium-dependent dopamine transporter (Homo sapiens, UniProt Q01959); assay: biochemical
Description: Displacement of [3H]dopamine from human DAT receptor expressed in HEK293 cells by scintillation counting

[3] = target: Voltage-gated inwardly rectifying potassium channel KCNH2 (Homo sapiens, UniProt Q12809)
[4] = target: Sodium-dependent serotonin transporter (Homo sapiens, UniProt P31645); assay: biochemical
Description: Displacement of [3H]5HT from human 5HT transporter expressed in HEK293 cells by scintillation counting

[5] = target: Sodium-dependent noradrenaline transporter (Homo sapiens, UniProt P23975); assay: biochemical
Description: Displacement of [3H]noradrenaline from human NET receptor expressed in HEK293 cells by scintillation counting

[6] = target: Cytochrome P450 2C9 (Homo sapiens, UniProt P11712); assay: Inhibition of CYP2C9; type: ADME
[7] = species on record: Rattus norvegicus; assay: Toxicity in rat after 14 days; type: organism-based; details: in vivo, 336 h
[8] = target: T1, Cytochrome P450 3A4 (Homo sapiens, UniProt P08684); assay: Inhibition of CYP3A4 using midazolam as a substrate; type: ADME
[9] = Binding affinity to sigma opioid receptor
[10] = test system: MDR1; assay: Permeability from apical to basolateral side of MDCK cells over expressing MDR1; type: ADME, cell-based, Canis lupus familiaris; details: dog
[11] = Intrinsic clearance in human hepatocytes measured per million cells; type: ADME, cell-based, Liver, Hepatocyte
[12] = test system: MDR1; assay: in vitro; details: dog, MDCK-MDR1
Description: Efflux ratio of permeability from apical to basolateral over basolateral to apical side in MDCK cells over expressing MDR1

[13] = test system: Plasma; assay: fCmax in Beagle dog plasma; type: ADME, organism-based, Canis lupus familiaris; details: in vivo
[14] = target: T2, Cytochrome P450 1A2 (Homo sapiens, UniProt P05177); assay: Inhibition of CYP1A2; type: ADME
T2 sequence (P05177 whole entry): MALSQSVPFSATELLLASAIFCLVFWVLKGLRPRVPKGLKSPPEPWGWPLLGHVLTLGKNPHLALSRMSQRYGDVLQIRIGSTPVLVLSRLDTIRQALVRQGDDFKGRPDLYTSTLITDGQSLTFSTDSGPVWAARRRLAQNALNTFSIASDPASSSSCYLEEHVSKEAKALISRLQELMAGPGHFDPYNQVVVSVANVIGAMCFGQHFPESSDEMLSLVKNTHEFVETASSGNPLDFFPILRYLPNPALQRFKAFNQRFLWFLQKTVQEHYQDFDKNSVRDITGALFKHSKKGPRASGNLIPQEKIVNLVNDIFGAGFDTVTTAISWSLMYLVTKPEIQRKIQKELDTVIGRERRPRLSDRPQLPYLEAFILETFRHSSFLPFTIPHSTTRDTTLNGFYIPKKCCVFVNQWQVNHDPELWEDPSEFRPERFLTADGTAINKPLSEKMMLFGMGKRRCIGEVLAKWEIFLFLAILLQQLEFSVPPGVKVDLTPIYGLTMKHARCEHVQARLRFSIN

[15] = target: Kappa-type opioid receptor (Homo sapiens, UniProt P41145); assay: Binding affinity to kappa opioid receptor
[16] = species on record: Canis familiaris; assay: Toxicity in Beagle dog after 14 days; type: organism-based, Canis lupus familiaris; details: in vivo, 336 h
[17] = Apparent permeability from apical to basolateral side of human Caco-2 cells at 10 uM; type: ADME, cell-based
[18] = Lipophilicity, log D at pH 7.4; type: physicochemical; details: buffer
[19] = Apparent permeability from basolateral to apical side of human Caco-2 cells at 10 uM; type: ADME, cell-based
[20] = Dissociation constant, pKa of the compound; type: physicochemical
[21] = Binding affinity to sodium channel
[22] = target: Cytochrome P450 2D6 (Homo sapiens, UniProt P10635); assay: Inhibition of CYP2D6; type: ADME
[23] = test system: MDR1; assay: Permeability from basolateral to apical side of MDCK cells over expressing MDR1; type: ADME, cell-based, Canis lupus familiaris; details: dog
[24] = test system: Rattus norvegicus; assay: Toxicity in rat assessed as effect on locomotor activity at 15 mg/kg, po after 14 days; type: organism-based; set-up: dose 15 mg/kg, route oral; details: in vivo, 336 h
[25] = target: T1, Cytochrome P450 3A4; assay: Inhibition of CYP3A4 using felodipine as a substrate; type: ADME
[26] = target: Cytochrome P450 2C19 (Homo sapiens, UniProt P33261); assay: Inhibition of CYP2C19; type: ADME
[27] = target: T1, Cytochrome P450 3A4; assay: Inhibition of CYP3A4 using testosterone as a substrate; type: ADME
[28] = species on record: Canis familiaris; assay: Increase in peak urethral pressure in Beagle dog; type: functional, Canis lupus familiaris, Urethra
[29] = Ratio of drug level from CSF to plasma in Beagle dog; type: ADME, Canis lupus familiaris

Chain of Sodium-dependent serotonin transporter (P31645 whole entry): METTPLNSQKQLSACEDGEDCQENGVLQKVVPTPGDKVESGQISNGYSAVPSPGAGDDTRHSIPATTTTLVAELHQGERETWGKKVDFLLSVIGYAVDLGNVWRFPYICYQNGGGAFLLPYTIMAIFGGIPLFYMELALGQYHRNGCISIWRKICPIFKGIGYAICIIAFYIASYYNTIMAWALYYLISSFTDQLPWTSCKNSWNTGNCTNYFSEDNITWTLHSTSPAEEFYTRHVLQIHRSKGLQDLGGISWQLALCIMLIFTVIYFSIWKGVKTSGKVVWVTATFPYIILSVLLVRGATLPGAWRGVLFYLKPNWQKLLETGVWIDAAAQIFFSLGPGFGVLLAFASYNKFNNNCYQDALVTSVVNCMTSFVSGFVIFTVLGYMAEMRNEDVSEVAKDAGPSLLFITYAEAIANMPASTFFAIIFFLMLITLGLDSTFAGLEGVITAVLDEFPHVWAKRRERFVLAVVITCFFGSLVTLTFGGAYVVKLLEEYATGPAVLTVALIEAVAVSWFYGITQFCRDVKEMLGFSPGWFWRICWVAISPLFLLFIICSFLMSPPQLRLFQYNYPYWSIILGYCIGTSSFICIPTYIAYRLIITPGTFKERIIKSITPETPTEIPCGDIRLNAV
Chain of Voltage-gated inwardly rectifying potassium channel KCNH2 (Q12809 whole entry): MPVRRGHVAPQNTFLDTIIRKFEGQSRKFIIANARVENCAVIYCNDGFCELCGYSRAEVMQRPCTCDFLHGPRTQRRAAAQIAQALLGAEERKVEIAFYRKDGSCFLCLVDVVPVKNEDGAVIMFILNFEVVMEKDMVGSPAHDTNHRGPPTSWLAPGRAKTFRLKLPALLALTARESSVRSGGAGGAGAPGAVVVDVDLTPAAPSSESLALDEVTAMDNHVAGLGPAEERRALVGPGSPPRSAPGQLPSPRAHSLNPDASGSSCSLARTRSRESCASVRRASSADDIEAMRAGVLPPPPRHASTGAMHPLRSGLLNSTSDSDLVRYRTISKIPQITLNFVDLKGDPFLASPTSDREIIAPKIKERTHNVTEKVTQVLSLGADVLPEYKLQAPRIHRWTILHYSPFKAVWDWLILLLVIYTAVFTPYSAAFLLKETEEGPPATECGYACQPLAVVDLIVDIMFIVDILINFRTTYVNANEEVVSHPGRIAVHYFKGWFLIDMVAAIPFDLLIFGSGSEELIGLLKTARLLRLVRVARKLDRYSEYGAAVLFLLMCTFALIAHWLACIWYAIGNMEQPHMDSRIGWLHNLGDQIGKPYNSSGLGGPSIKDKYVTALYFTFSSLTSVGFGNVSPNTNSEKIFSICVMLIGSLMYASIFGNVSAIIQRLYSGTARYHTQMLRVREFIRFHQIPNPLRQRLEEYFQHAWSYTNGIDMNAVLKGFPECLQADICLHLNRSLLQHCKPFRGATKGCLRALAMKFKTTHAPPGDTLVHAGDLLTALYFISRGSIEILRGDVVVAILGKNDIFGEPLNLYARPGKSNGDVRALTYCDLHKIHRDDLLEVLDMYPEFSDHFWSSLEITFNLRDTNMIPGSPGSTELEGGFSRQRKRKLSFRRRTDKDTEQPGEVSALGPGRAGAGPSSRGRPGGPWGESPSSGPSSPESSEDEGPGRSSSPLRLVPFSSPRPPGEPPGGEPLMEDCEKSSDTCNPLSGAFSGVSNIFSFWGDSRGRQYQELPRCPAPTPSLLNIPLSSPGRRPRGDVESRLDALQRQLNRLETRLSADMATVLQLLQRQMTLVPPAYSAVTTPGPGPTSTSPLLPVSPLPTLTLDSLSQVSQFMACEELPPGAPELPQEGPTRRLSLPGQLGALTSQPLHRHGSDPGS
Chain of Sodium-dependent noradrenaline transporter (P23975 whole entry): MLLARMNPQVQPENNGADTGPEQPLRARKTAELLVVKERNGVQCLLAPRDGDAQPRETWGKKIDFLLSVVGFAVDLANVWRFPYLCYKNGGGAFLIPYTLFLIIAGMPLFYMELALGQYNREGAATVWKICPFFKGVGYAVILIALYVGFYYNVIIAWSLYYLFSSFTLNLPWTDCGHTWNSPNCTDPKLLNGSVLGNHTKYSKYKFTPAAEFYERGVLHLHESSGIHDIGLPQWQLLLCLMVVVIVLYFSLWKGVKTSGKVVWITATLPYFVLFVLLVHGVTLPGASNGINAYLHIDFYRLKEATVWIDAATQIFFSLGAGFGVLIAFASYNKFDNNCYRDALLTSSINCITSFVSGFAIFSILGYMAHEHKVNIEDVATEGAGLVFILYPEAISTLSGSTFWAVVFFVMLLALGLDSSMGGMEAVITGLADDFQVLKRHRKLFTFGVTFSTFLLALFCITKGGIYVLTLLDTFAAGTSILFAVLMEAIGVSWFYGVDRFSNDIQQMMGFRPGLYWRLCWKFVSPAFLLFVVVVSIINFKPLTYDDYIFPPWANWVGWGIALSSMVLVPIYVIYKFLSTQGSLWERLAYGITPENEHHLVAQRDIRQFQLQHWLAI
Chain of Sodium-dependent dopamine transporter (Q01959 whole entry): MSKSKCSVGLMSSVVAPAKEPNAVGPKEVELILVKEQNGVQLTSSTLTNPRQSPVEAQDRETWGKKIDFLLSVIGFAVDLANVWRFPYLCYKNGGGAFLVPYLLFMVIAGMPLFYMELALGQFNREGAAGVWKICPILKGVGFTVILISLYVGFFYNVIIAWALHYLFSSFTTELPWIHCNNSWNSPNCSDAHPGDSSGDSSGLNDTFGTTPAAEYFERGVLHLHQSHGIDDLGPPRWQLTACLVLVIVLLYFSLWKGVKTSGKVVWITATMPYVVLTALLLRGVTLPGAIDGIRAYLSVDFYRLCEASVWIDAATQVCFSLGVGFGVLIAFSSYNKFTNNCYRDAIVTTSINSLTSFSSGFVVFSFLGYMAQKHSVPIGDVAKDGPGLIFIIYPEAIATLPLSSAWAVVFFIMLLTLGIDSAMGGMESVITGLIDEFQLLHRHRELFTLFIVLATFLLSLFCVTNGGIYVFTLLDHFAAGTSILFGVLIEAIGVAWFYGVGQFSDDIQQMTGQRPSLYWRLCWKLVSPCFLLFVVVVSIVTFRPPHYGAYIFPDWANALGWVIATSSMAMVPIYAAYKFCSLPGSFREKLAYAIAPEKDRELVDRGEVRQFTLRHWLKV
T1 sequence (P08684 whole entry): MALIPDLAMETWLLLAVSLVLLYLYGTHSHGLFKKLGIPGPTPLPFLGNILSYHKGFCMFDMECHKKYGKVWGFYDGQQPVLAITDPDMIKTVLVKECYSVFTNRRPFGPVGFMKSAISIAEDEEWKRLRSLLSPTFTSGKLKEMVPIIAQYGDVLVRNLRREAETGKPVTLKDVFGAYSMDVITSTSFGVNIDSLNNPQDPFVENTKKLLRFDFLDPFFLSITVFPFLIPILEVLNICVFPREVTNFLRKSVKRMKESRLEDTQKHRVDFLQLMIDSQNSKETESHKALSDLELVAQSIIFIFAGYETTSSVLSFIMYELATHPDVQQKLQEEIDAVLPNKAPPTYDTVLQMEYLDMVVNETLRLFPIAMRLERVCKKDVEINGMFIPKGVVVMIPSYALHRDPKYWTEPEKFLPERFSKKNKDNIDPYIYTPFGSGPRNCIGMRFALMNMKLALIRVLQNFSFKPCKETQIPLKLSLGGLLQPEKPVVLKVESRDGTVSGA
Chain of Kappa-type opioid receptor (P41145 whole entry): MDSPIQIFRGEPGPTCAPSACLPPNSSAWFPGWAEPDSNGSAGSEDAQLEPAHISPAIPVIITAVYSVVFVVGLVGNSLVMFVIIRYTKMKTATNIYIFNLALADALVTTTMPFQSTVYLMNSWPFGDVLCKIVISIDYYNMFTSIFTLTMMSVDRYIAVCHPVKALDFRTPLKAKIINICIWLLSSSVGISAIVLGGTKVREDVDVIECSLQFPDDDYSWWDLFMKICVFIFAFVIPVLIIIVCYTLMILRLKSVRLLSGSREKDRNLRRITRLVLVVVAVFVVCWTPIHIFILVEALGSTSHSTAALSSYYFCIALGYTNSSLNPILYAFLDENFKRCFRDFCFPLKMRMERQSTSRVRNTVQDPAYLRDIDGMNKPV
Chain of Cytochrome P450 2D6 (P10635 whole entry): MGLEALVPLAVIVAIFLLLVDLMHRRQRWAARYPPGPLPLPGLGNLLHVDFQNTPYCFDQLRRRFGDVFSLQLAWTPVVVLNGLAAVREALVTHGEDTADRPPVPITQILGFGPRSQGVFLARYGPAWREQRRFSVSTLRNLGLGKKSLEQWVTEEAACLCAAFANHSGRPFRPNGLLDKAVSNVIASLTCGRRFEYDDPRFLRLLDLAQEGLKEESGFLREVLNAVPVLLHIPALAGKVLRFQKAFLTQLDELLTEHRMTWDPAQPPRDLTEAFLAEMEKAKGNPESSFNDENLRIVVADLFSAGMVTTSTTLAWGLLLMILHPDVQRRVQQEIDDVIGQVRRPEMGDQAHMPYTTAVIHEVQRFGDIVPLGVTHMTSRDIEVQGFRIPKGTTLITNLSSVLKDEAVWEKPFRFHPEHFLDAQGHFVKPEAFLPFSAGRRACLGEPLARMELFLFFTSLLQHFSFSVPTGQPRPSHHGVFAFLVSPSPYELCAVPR
Chain of Cytochrome P450 2C19 (P33261 whole entry): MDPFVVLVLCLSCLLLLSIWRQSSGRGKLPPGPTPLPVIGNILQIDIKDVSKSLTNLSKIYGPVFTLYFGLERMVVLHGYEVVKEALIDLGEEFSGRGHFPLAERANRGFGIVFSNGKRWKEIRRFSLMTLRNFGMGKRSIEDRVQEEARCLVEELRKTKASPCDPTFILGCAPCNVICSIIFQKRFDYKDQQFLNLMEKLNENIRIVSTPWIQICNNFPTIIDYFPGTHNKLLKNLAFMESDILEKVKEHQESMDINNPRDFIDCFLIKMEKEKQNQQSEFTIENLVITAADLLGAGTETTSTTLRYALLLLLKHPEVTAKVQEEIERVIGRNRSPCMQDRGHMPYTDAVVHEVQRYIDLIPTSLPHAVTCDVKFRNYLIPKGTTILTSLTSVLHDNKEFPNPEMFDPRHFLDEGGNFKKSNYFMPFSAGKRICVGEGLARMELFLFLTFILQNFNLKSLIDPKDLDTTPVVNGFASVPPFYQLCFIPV

microsomal CLint [1]: 26 µL/min/mg
Ki [2]: 0.516 µM
Ki [4]: 0.003 µM
Ki [5]: 0.029 µM
SMILES: Cc1c(Cl)cccc1C(=O)N(CC(C)C)[C@H]1CCNC1
IC50 [3]: 52.4 µM

microsomal CLint [1]: 26 µL/min/mg
Ki [2]: 2.4 µM
Ki [4]: 0.003 µM
Ki [5]: 0.037 µM
SMILES: CC(C)CN(C(=O)c1ccc(Cl)cc1Cl)[C@H]1CCNC1

microsomal CLint [1]: < 7 µL/min/mg
Ki [2]: 3.59 µM
Ki [4]: 1.32 µM
Ki [5]: 0.065 µM
SMILES: CC(C)CN(C(=O)c1ccccc1C(C)C)[C@H]1CCNC1
IC50 [3]: 12.9 µM

microsomal CLint [1]: 23.5 µL/min/mg
Ki [2]: 1.33 µM
Ki [4]: 0.019 µM
Ki [5]: 0.135 µM
SMILES: CC(C)CN(C(=O)c1cccc(Cl)c1)[C@H]1CCNC1

microsomal CLint [1]: 21 µL/min/mg
Ki [2]: 1.61 µM
Ki [4]: 0.013 µM
Ki [5]: 0.069 µM
SMILES: Cc1c(F)cccc1C(=O)N(CC(C)C)[C@H]1CCNC1

microsomal CLint [1]: 34 µL/min/mg
Ki [2]: 2.6 µM
Ki [4]: 0.02 µM
Ki [5]: 0.037 µM
SMILES: CCC(CC)N(C(=O)c1cccc(Cl)c1Cl)[C@H]1CCNC1
IC50 [3]: 7.74 µM

microsomal CLint [1]: < 7 µL/min/mg
Ki [2]: 0.63 µM
Ki [4]: 0.016 µM
Ki [5]: 0.036 µM
SMILES: CCCN(C(=O)c1cccc(Cl)c1Cl)[C@H]1CCNC1
IC50 [3]: > 18.6 µM

microsomal CLint [1]: 36 µL/min/mg
Ki [2]: 0.43 µM
Ki [4]: 0.004 µM
Ki [5]: 0.05 µM
SMILES: CC(C)CN(C(=O)c1ccc(Cl)c(Cl)c1)[C@H]1CCNC1

Ki [2]: 0.273 µM
Ki [4]: 0.004 µM
Ki [5]: 0.013 µM
SMILES: CC(C)(C)CN(C(=O)c1cccc(Cl)c1Cl)[C@H]1CCNC1

microsomal CLint [1]: 20 µL/min/mg
Ki [2]: 2.54 µM
Ki [4]: 0.007 µM
Ki [5]: 0.263 µM
SMILES: CC(C)CN(C(=O)c1ccc(F)cc1Cl)[C@H]1CCNC1

microsomal CLint [1]: < 8 µL/min/mg
Ki [2]: 3.73 µM
Ki [4]: 0.039 µM
Ki [5]: 0.095 µM
SMILES: O=C(c1cccc(Cl)c1Cl)N(CC(F)(F)F)[C@H]1CCNC1

microsomal CLint [1]: 26 µL/min/mg
Ki [2]: 0.404 µM
Ki [4]: 0.015 µM
Ki [5]: 0.024 µM
SMILES: O=C(c1cccc(Cl)c1Cl)N(CCC1CC1)[C@H]1CCNC1
IC50 [3]: 7.14 µM

Ki [2]: 2.07 µM
Ki [4]: 0.011 µM
Ki [5]: 0.103 µM
SMILES: CC(C)CN(C(=O)c1cccc(C(F)(F)F)c1Cl)[C@H]1CCNC1

microsomal CLint [1]: 26 µL/min/mg
Ki [2]: 2.56 µM
Ki [4]: 0.01 µM
Ki [5]: 0.139 µM
SMILES: CC(C)CN(C(=O)c1cccc(Cl)c1F)[C@H]1CCNC1
IC50 [3]: > 10 µM

SMILES: O=C(c1cccc(Cl)c1Cl)N(c1ccccc1)[C@H]1CCNC1
microsomal CLint [1]: < 25 µL/min/mg
Ki [2]: 0.501 µM
IC50 [3]: 7.92 µM
Ki [4]: 0.003 µM
Ki [5]: 0.011 µM

SMILES: CC(C)CN(C(=O)c1cccc(Cl)c1Cl)[C@H]1CCNC1
IC50 [6]: > 30 µM
Activity [7]: Non-toxic
IC50 [8]: > 30 µM
IC50 [9]: 5.1 µM
Papp A→B [10]: 160 nm/s
hepatocyte CLint [11]: 3 µL/min/1e6 cells
efflux ratio [12]: 2.7
fCmax [13]: 5 nM
IC50 [14]: > 30 µM
IC50 [15]: 5.8 µM
Activity [16]: Non-toxic
Papp A→B at 10 µM [17]: 120 nm/s
microsomal CLint [1]: 11 µL/min/mg
logD [18]: 0.6
Papp B→A at 10 µM [19]: 260 nm/s
Ki [2]: 0.544 µM
pKa [20]: 10
IC50 [21]: 3.6 µM
IC50 [3]: 20 µM
IC50 [22]: > 30 µM
Ki [4]: 0.006 µM
Ki [5]: 0.021 µM
Papp B→A [23]: 430 nm/s
Activity [24]: Non-toxic
IC50 [25]: > 30 µM
IC50 [26]: > 30 µM
IC50 [27]: > 30 µM
Activity [28]: 35%

Papp A→B [10]: 150 nm/s
efflux ratio [12]: 4.3
microsomal CLint [1]: < 7.6 µL/min/mg
Ki [2]: 0.64 µM
Kp [29]: 0.1
Ki [4]: 0.009 µM
Ki [5]: 0.052 µM
Papp B→A [23]: 640 nm/s
SMILES: CC(C)C(=O)N(Cc1cccc(Cl)c1Cl)[C@H]1CCNC1

Ki [4]: 0.025 µM
Ki [5]: 0.026 µM
SMILES: CC(C)CN(C(=O)c1cccc(F)c1C(F)(F)F)[C@H]1CCNC1
IC50 [3]: > 10 µM

Ki [2]: 3.07 µM
Ki [4]: 0.006 µM
Ki [5]: 0.043 µM
SMILES: CC(C)CN(C(=O)c1cc(Cl)cc(Cl)c1)[C@H]1CCNC1
IC50 [3]: > 10 µM

Papp A→B [10]: 10 nm/s
efflux ratio [12]: 20
microsomal CLint [1]: 13 µL/min/mg
Ki [2]: 0.945 µM
Ki [4]: 0.006 µM
Ki [5]: 0.01 µM
Papp B→A [23]: 200 nm/s
SMILES: O=C(c1cccc(Cl)c1Cl)N(C1=CCOC=C1)[C@H]1CCNC1
IC50 [3]: > 40 µM

microsomal CLint [1]: 20 µL/min/mg
Ki [2]: 2.37 µM
Ki [4]: 0.015 µM
Ki [5]: 0.067 µM
SMILES: CC(C)CN(C(=O)c1cccc(F)c1Cl)[C@H]1CCNC1

SMILES: CC(C)CN(C(=O)c1cccc(Cl)c1Cl)[C@@H]1CCNC1
Ki [2]: 3.09 µM
Ki [4]: 0.013 µM
Ki [5]: 0.169 µM

microsomal CLint [1]: < 13 µL/min/mg
Ki [2]: 1.09 µM
Ki [4]: 0.029 µM
Ki [5]: 0.217 µM
SMILES: CCN(C(=O)c1cccc(Cl)c1Cl)[C@H]1CCNC1
IC50 [3]: > 20 µM

microsomal CLint [1]: 29 µL/min/mg
Ki [2]: 2.43 µM
Ki [4]: 0.054 µM
Ki [5]: 0.198 µM
SMILES: CC(C)CN(C(=O)c1cc(Cl)ccc1Cl)[C@H]1CCNC1
IC50 [3]: 19.8 µM

Papp A→B [10]: 100 nm/s
microsomal CLint [1]: < 7 µL/min/mg
Ki [2]: 0.983 µM
Ki [4]: 0.006 µM
Ki [5]: 0.011 µM
Papp B→A [23]: 640 nm/s
SMILES: O=C(c1cccc(Cl)c1Cl)N(C1CCCC1)[C@H]1CCNC1
